Measured values reported in US20250092064A1, “BENZOTRIAZOLE COMPOUND” (DAIICHI SANKYO COMPANY, LIMITED, priority 2022, published 2025).

Assays:
[1] = test system: NQO1 activity in Hepa1c1c7 cells; experiment: NAD(P)H: quinone oxidoreductase-1 (NQO1) enzyme induction assay (in vitro); assay type: cell-based, mouse; conditions: Mus musculus, Hepa-1c1c7, NQO1 activity with 400 nM test compound as a ratio from the base without compound, about 48 hr
Method: The NQO1 assay was performed based on a previous report (Methods in Enzymology 2004; 382: 243-258). Hepa1c1c7 cells (mouse hepatocyte cell line, ATCC, cat. no. CRL-2026) were cultured in D-MEM medium containing 10% FBS and 1% penicillin/streptomycin (5% CO2, 37° C.), and seeded into 96-well plates (Corning REF. 353072) at 1×10^4 cells/well. A portion of the wells were prepared with medium only for background measurement without seeding cells. The next day, 400 nM of the test compound (0.004% of the final concentration in DMSO) dissolved in DMSO was added thereto, and the wells were incubated for about 48 hr. A well without adding the test compound was prepared for base activity assay in part. […] After the medium was removed, 50 μL of the cell lysate was added and incubated at 37° C. for 10 minutes, followed by shaking at room temperature for 10 minutes. 200 μL of reaction solution was added thereto, and allowed to stand for 5 minutes at room temperature. 50 μL of the stop solution was added thereto, and absorbance was measured at 610 nm on a SpectraMax PLUS384 (Molecular devices) or […] Pharma Biomedical). The test results were analyzed in Excel, and the NQO1 activity upon addition of 400 nM of test compound was calculated as a ratio from the base without the compound. NQO1 activity ratio when test compound is added=(absorbance when test compound is added-absorbance of medium only)/(absorbance without addition of compound-absorbance of medium only) [numerical formula 2] The results of each test compound in this test are shown in the following Table 2 (A:5<NQO1 activity ratio, B:3<NQO1 activity ratio≤5).

[2] = target: binding between Nrf2 and Keap1 (Homo sapiens (Human), UniProt Q14145); experiment: FP assay (in vitro): inhibition of Nrf2-Keap1 binding by fluorescence polarization; conditions: GST-fused human Keap1 (325-642) 20 nM, FITC-labeled Nrf2 peptide 10 nM, 2 hr at room temperature
Chain of binding between Nrf2 and Keap1 (Q14145 325-624 limits assumed): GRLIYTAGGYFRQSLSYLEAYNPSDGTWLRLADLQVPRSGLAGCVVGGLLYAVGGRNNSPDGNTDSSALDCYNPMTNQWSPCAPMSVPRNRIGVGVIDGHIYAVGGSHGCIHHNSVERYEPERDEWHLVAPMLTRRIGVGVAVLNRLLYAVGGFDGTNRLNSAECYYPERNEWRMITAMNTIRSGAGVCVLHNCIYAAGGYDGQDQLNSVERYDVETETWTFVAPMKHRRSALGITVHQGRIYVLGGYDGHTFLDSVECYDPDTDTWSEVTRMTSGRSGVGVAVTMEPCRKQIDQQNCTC

Compound	IC50 [2]	fold induction at 0.4 µM [1]
CC[C@@H]1CN(Cc2cc([C@@H](CC(=O)O)c3ccc4c(nnn4C)c3C)cc3ccsc23)C(C)c2nc(O)ccc2O1 (relative stereo) [Example 79, (3R)-3-(1,4-Dimethyl-1H-benzotriazol-5-yl)-3-(7-{[(2R,5R*)-2-ethyl-7-hydroxy-5-methyl-2,3-dihydropyrido[2,3-f][1,4]oxazepin-4(5H)-yl]methyl}-1-benzothiophen-5-yl)propanoic acid]		> 5
CC[C@@H]1CN(Cc2cc([C@@H](CC(=O)O)c3cnc4c(nnn4C)c3C)cc3ccsc23)C(C)c2nc(O)ccc2O1 (single isomer, unassigned) [Example 81, (3R)-3-(3,7-Dimethyl-3H-[1,2,3]triazolo[4,5-b]pyridin-6-yl)-3-(7-{[(2R,5S*)-2-ethyl-7-hydroxy-5-methyl-2,3-dihydropyrido[2,3-f][1,4]oxazepin-4(5H)-yl]methyl}-1-benzothiophen-5-yl)propanoic acid]		3 to 5
Cc1c([C@H](CC(=O)O)c2cc(CN3C[C@@H](C4CC4)Oc4ccc(O)nc4C3C)c3sccc3c2)ccc2c1nnn2C (single isomer, unassigned) [Example 83, (3R)-3-(7-{[(2R,5S*)-2-Cyclopropyl-7-hydroxy-5-methyl-2,3-dihydropyrido[2,3-f][1,4]oxazepin-4(5H)-yl]methyl}-1-benzothiophen-5-yl)-3-(1,4-dimethyl-1H-benzotriazol-5-yl)propanoic acid]	30 to 100 nM	> 5
Cc1c([C@H](CC(=O)O)c2cc(CN3C[C@@H](C4CC4)Oc4ccc(O)nc4C3C)c3sccc3c2)ccc2c1nnn2C (single isomer, unassigned) [Example 84, (3R)-3-(7-{[(2R,5R*)-2-Cyclopropyl-7-hydroxy-5-methyl-2,3-dihydropyrido[2,3-f][1,4]oxazepin-4(5H)-yl]methyl}-1-benzothiophen-5-yl)-3-(1,4-dimethyl-1H-benzotriazol-5-yl)propanoic acid]	30 to 100 nM	
Cc1c([C@H](CC(=O)O)c2cc(CN3CC4(CC4)Oc4ccc(O)nc4C3C)c3sccc3c2)ccc2c1nnn2C (single isomer, unassigned) [Example 87, (3R)-3-(1,4-Dimethyl-1H-benzotriazol-5-yl)-3-(7-{[(5′S*)-7′-hydroxy-5′-methyl-3′H-spiro[cyclopropane-1,2′-pyrido[2,3-f][1,4]oxazepin]-4′(5′H)-yl]methyl}-1-benzothiophen-5-yl)propanoic acid]		> 5
CC[C@@H]1CN(Cc2cc(C(CC(=O)O)c3ccc4c(nnn4C)c3C)cc3c2CCC3)S(=O)(=O)c2ccc(Cl)cc2O1 (stereo partly drawn) [Example 15, 3-(7-{[(4R)-7-Chloro-4-ethyl-1,1-dioxido-3,4-dihydro-2H-5,1,2-benzoxathiazepin-2-yl]methyl}-2,3-dihydro-1H-inden-5-yl)-3-(1,4-dimethyl-1H-benzotriazol-5-yl)propanoic acid]	30 to 100 nM	
Cc1c(C(CC(=O)O)c2cc3c(c(CN4CC5(CCOCC5)Oc5ncccc5S4(=O)=O)c2)CCC3)ccc2c1nnn2C (stereo not shown) [Example 33, 3-(1,4-Dimethyl-1H-benzotriazol-5-yl)-3-{7-[(1,1′-dioxido-2,3,5,6-tetrahydrospiro[pyran-4,4′-pyrido[2,3-b][1,4,5]oxathiazepine]-2′(3′H)-yl)methyl]-2,3-dihydro-1H-inden-5-yl}propanoic acid]	30 to 100 nM	
Cc1c(C(CC(=O)O)c2cc3c(c(CN4CC5(COC5)Oc5ncccc5S4(=O)=O)c2)CCC3)ccc2c1nnn2C (stereo not shown) [Example 36, 3-(1,4-Dimethyl-1H-benzotriazol-5-yl)-3-{7-[(1,1′-dioxido-spiro[oxetane-3,4′-pyrido[2,3-b][1,4,5]oxathiazepine]-2′ (3′H)-yl)methyl]-2,3-dihydro-1H-inden-5-yl}propanoic acid]	10 to 30 nM	
CC[C@@H]1CN(Cc2cc([C@H](CC(=O)O)c3ccc4c(nnn4C)c3C)cc3ccsc23)[C@@H](C)c2ncccc2O1 [Example 62, (3S)-3-(1,4-Dimethyl-1H-benzotriazol-5-yl)-3-(7-{[(2R,5S)-2-ethyl-5-methyl-2,3-dihydropyrido[2,3-f][1,4]oxazepin-4(5H)-yl]methyl}-1-benzothiophen-5-yl)propanoic acid]	10 to 30 nM	

The next lines start with results.

IC50 [2]	Compound	fold induction at 0.4 µM [1]
≤ 10 nM	CC[C@@H]1Cc2ncccc2S(=O)(=O)N(Cc2cc([C@@H](CC(=O)O)c3ccc4c(nnn4C)c3C)cc3c2CCC3)C1 (single isomer, unassigned) [Example 27, (3R)-3-(1,4-Dimethyl-1H-benzotriazol-5-yl)-3-(7-{[(4S*)-4-ethyl-1,1-dioxido-4,5-dihydropyrido[2,3-f][1,2]thiazepin-2(3H)-yl]methyl}-2,3-dihydro-1H-inden-5-yl)propanoic acid]	> 5
≤ 10 nM	CC[C@@H]1Cc2ccccc2S(=O)(=O)N(Cc2cc([C@@H](CC(=O)O)c3ccc4c(nnn4C)c3C)cc3c2CCC3)C1 (single isomer, unassigned) [Example 28, (3R)-3-(1,4-Dimethyl-1H-benzotriazol-5-yl)-3-(7-{[(4S*)-4-ethyl-1,1-dioxido-4,5-dihydro-1,2-benzothiazepin-2(3H)-yl]methyl}-2,3-dihydro-1H-inden-5-yl)propanoic acid]	> 5
≤ 10 nM	CC[C@@H]1CN(Cc2cc(C(CC(=O)O)c3cc(Cl)c4c(nnn4C)c3C)cc3c2CCC3)[C@@H](C)c2ncccc2O1 (single isomer, unassigned) [Example 71, (3R*)-3-(7-Chloro-1,4-dimethyl-1H-benzotriazol-5-yl)-3-(7-{[(2R,5S)-2-ethyl-5-methyl-2,3-dihydropyrido[2,3-f][1,4]oxazepin-4(5H)-yl]methyl}-2,3-dihydro-1H-inden-5-yl)propanoic acid]	> 5
≤ 10 nM	CC[C@@H]1CN(Cc2cc(C(CC(=O)O)c3cc(Cl)c4c(nnn4C)c3C)cc3c2CCC3)[C@@H](C)c2ncccc2O1 (single isomer, unassigned) [Example 72, (3S*)-3-(7-Chloro-1,4-dimethyl-1H-benzotriazol-5-yl)-3-(7-{[(2R,5S)-2-ethyl-5-methyl-2,3-dihydropyrido[2,3-f][1, 4]oxazepin-4(5H)-yl]methyl}-2,3-dihydro-1H-inden-5-yl)propanoic acid]	
≤ 10 nM	CCC1c2ncccc2O[C@H](CC)CN1Cc1cc([C@H](CC(=O)O)c2ccc3c(nnn3C)c2C)cc2ccsc12 (single isomer, unassigned) [Example 76, (3S)-3-(7-{[(2R,5R*)-2,5-Diethyl-2,3-dihydropyrido[2,3-f][1,4]oxazepin-4(5H)-yl]methyl}-1-benzothiophen-5-yl)-3-(1,4-dimethyl-1H-benzotriazol-5-yl)propanoic acid]	> 5
≤ 10 nM	CCC1c2ncccc2O[C@H](CC)CN1Cc1cc([C@H](CC(=O)O)c2ccc3c(nnn3C)c2C)cc2ccsc12 (single isomer, unassigned) [Example 77, (3S)-3-(7-{[(2R,5S*)-2,5-Diethyl-2,3-dihydropyrido[2,3-f][1,4]oxazepin-4(5H)-yl]methyl}-1-benzothiophen-5-yl)-3-(1,4-dimethyl-1H-benzotriazol-5-yl)propanoic acid]	
10 to 30 nM	CC[C@@H]1CN(Cc2cc([C@@H](CC(=O)O)c3ccc4c(nnn4C)c3C)cc3ccsc23)C(C)c2nc(O)ccc2O1 (single isomer, unassigned) [Example 78, (3R)-3-(1,4-Dimethyl-1H-benzotriazol-5-yl)-3-(7-{[(2R,5S*)-2-ethyl-7-hydroxy-5-methyl-2,3-dihydropyrido[2,3-f][1,4]oxazepin-4(5H)-yl]methyl}-1-benzothiophen-5-yl)propanoic acid]	> 5
10 to 30 nM	Cc1c([C@H](CC(=O)O)c2cc(CN3C[C@@H](C4CC4)Oc4ccc(O)nc4C3C)c3sccc3c2)cnc2c1nnn2C (single isomer, unassigned) [Example 85, (3R)-3-(7-{[(2R,5R*)-2-Cyclopropyl-7-hydroxy-5-methyl-2,3-dihydropyrido[2,3-f][1,4]oxazepin-4(5H)-yl]methyl}-1-benzothiophen-5-yl)-3-(3,7-dimethyl-3H-[1,2,3]triazolo[4,5-b]pyridin-6-yl)propanoic acid]	> 5
10 to 30 nM	Cc1c(C(CC(=O)O)c2cc3c(c(CN4CC5(CCC5)Oc5ncccc5S4(=O)=O)c2)CCC3)ccc2c1nnn2C (stereo not shown) [Example 35, 3-(1,4-Dimethyl-1H-benzotriazol-5-yl)-3-{7-[(1,1′-dioxido-spiro[cyclobutane-1,4′-pyrido[2,3-b][1,4,5]oxathiazepine]-2′(3′H)-yl)methyl]-2,3-dihydro-1H-inden-5-yl}propanoic acid]	
